Measurements from paper PMC3336937 (2012).

Target: T1, KcsA (Streptomyces lividans, UniProt P0A334)
T1 sequence (P0A334 1-160): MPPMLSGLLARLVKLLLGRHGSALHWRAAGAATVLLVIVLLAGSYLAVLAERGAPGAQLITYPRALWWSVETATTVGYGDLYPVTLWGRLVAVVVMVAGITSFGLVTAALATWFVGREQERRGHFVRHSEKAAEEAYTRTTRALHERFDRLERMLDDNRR
Experiment: Trp fluorescence quenching, purified reconstituted wild-type KcsA
Format: binding

Trp fluorescence quenching, purified reconstituted wild-type KcsA; binding const: 0.67 ± 0.04
SMILES: CCCCCCCCC(Br)C(Br)CCCCCCCC(=O)O (stereo not shown) [BrSA, 9,10-dibromostearic acid]
